Source: patent US20100300896A1, “Redox Molecules And Methods Of Making The Same” (BAYER HEALTHCARE LLC, priority 2009, published 2010)
Where two headings read alike, the source gives them in different places.

How the values were obtained:
glucose dehydrogenase = experiment: Output current from mediator in a mixture containing glucose and glucose dehydrogenase; format: biochemical; conditions: mediator 3 mg/mL, 10 mM PBS buffer (pH 7.4), input potential 100 mV vs. Ag/AgCl, glucose 0 to 1.2 mM
Experimental: FIG. 2 depicts a graph illustrating output currents from mediator oxidation in response to an input potential when the mediator is in a mixture containing glucose and glucose dehydrogenase. The mediator was the composition used in FIGS. 1A and 1B. A 5 mm glassy carbon electrode served as a WE, Ag/AgCl as a RE, and platinum gauAge as a CE. The composition was present at a concentration of 2 mg/mL in a mixture containing 10 mM PBS buffer (pH 7.4), and the input potential was 100 mV vs. Ag/AgCl. […] Thus, the composition may be used as a mediator for the redox reaction correlating the glucose concentration in a sample with an electrical signal. Referring to FIG. 2, a compound having general formula (III), where X is bromine, can be used as a mediator for the redox reaction correlating the glucose concentration of a sample with an electrical signal. A 5 mm glassy carbon electrode served as a WE, Ag/AgCl as a RE, and platinum gauAge as a CE. The mediator was present at a concentration of 3 mg/mL in a mixture containing 10 mM PBS buffer (pH 7.4), and the input potential was 100 mV vs. Ag/AgCl. […] Thus, the composition may be used as a mediator for the redox reaction correlating the glucose concentration in a sample with an electrical signal.

[1] = Open circuit voltage between working electrode and reference electrode; format: physicochemical; conditions: 10 mM PBS buffer
Experimental: The open circuit voltage between the WE and the RE also was measured for the mediator composition of FIGS. 1A and 1B. The open circuit voltage is a measure of the redox state of the mediator.
The open circuit voltage between the WE and the RE also was measured for the compound having general formula (III), where X is bromine.

[2] = Voltammetric scan of the mediator: output current in response to input potential (glassy carbon WE, Ag/AgCl RE, platinum CE); format: physicochemical; conditions: for redox potential: mediator 1 mg/mL
Excerpt: FIGS. 1A and 1B depict graphs illustrating output currents from mediator reduction in response to an input potential. The mediator was a composition including a 3:2 molar mixture of a first compound having the general formula (I), and a second compound having the general formula (II), where X is bromine and each compound is present as the disodium salt. A 5 mm glassy carbon electrode served as a working electrode (WE), Ag/AgCl as a reference electrode (RE), and platinum gauAge as a counter electrode (CE). In FIG. 1A, the mediator composition was present at a concentration of 1 mg/mL in a mixture containing 10 mM PBS buffer (pH 7.4), and the input potential was scanned between −200 mV and 200 mV vs. Ag/AgCl. In FIG. 1B, the mediator composition was present at a concentration of 1 mg/mL in a mixture containing 100 mM PBS (pH 7.0) and 100 mM NaCl buffer solution, and the input potential was scanned between −100 mV and 200 mV vs. Ag/AgCl. Referring to FIG. 1B, when the scan rate was less than 50 mV/s, the oxidative and reductive peak separation was around 30-40 mV. […] The redox potential of the mediator composition of FIGS. 1A and 1B was about −3 mV vs. Ag/AgCl in the 10 mM PBS buffer (pH 7.4), and was about 40 mV vs. Ag/AgCl in the mixture of 100 mM PBS (pH 7.0) and 100 mM NaCl buffer. These redox potentials are similar to that of the conventional mediator (E)-2-(3H-phenothiaAgine-3-ylideneamino)benAgene-1,4-disulfonic acid (Structure A), which is −50 mV vs. Ag/AgCl. FIG. 5A and FIG. 5B depict graphs illustrating output currents from mediator reduction in response to an input potential. The mediator was a compound having general formula (III), where X is bromine. A 5 mm glassy carbon electrode served as a WE, Ag/AgCl as a RE, and platinum gauAge as a CE. In FIG. 5A, the mediator was present at a concentration of 1 mg/mL in a mixture containing 10 mM PBS buffer (pH 7.4), and the input potential was scanned between −200 mV and 200 mV vs. Ag/AgCl. […]

[3] = conventional mediator, buffer not stated; cited from earlier work

| Structure (SMILES) | output current vs glucose concentration (glucose dehydrogenase) | open circuit voltage [1] [mV vs. Ag/AgCl] | redox potential ([2]; 10 mM PBS buffer (pH 7.4)) | redox potential ([2]; mixture of 100 mM PBS (pH 7.0) and 100 mM NaCl buffer) | oxidative and reductive peak separation ([2]; scan rate less than 50 mV/s, 100 mM PBS (pH 7.0) and 100 mM NaCl buffer, 1 mg/mL) | redox potential [3] [mV vs. Ag/AgCl] |
| --- | --- | --- | --- | --- | --- | --- |
| O=S(=O)(O)c1ccc(S(=O)(=O)O)c(N=c2cc3sc4ccccc4nc-3cc2OCCCCCCCCBr)c1 [2-(2-(8-bromooctanoxy)-3H-phenothiaAgin-3-ylideneamino)benAgene-1,4-disulfonic acid] | output current increased as the glucose concentration increased from 0 to 1.2 mM | 111 | about 3 mV vs. Ag/AgCl | about 15 mV vs. Ag/AgCl | 30-40 mV | – |
| O=S(=O)(O)c1ccc(S(=O)(=O)O)c(/N=c2\ccc3nc4ccccc4sc-3c2)c1 [Structure A, (E)-2-(3H-phenothiaAgine-3-ylideneamino)benAgene-1,4-disulfonic acid] | – | – | – | – | – | −50 |
